Experiments:
[1] = Reprecipitation (dissolution) test for compound A dissolved in acetonitrile, Experimental Example 1; format: physicochemical
Protocol: (§1) Each (50 mg) of the aminoalkyl methacrylate copolymer E having a solubility enhanced with acid prepared in Example 1, hydroxypropylmethylcellulose 2910 (TC-5E, Shin-Etsu Chemical Co., Ltd.), and copolyvidone (Kollidon VA-64, BASF) was dissolved in 500 mL of a second fluid for disintegrating test used in a disintegrating test described in the Japanese Pharmacopoeia fifteenth edition. For comparison, 500 mL of a second fluid for disintegrating test used in a disintegrating test described in the Japanese Pharmacopoeia fifteenth edition without such additives was prepared.
(§2) To each vessel, 2 mL of a solution of compound A (25 mg/mL) in acetonitrile was added, and an automated dissolution tester (manufactured by Toyama Sangyo Co., Ltd.) was used to carry out a reprecipitation test for compound A, in accordance with a dissolution test, method 2, described in the Japanese Pharmacopoeia. The ultraviolet absorbance of compound A was measured at a wavelength of 273 nm. The paddle rotation speed was 50 rpm. The percentage dissolved was calculated on the basis that an absorbance of 0.576 when measured using a 1 mm cell was regarded as a concentration of 100 μg/mL (compound A).

[2] = Reprecipitation (dissolution) test for compound A dissolved in polyethylene glycol 400, Experimental Example 2; format: physicochemical; details: compound A in polyethylene glycol 400
Protocol: as §1, with “1, and” for “1,”, “Ltd.)” for “Ltd.), and copolyvidone (Kollidon VA-64, BASF)”, “dissolution” for “disintegrating”
as §2, with “polyethylene glycol 400 (Kanto Chemical Co., Inc.)” for “acetonitrile”

[3] = Reprecipitation test for compound A with copolymers of different amounts of neutralization, Experimental Example 3; format: physicochemical; details: compound A in acetonitrile; fluid containing copolymer E of Examples 5, 6 or 7 (every Example)
Protocol: Each of the aminoalkyl methacrylate copolymers E having a solubility enhanced with acid prepared in Examples 5, 6, and 7 was dissolved in 500 mL of a second fluid for dissolution test used in a dissolution test described in the Japanese Pharmacopoeia fifteenth edition.
as §2, with “(Toyama” for “(manufactured by Toyama”, “The” for “The ultraviolet”

[4] = Reprecipitation test for compound A with copolymer solubilized with citric acid, Experimental Example 4; format: physicochemical; details: compound A in acetonitrile; fluid containing copolymer E of Example 8 (citric acid)
Protocol: as §1, with “copolymers” for “copolymer”, “Examples 1” for “Example 1, hydroxypropylmethylcellulose 2910 (TC-5E, Shin-Etsu Chemical Co., Ltd.),”, “8” for “copolyvidone (Kollidon VA-64, BASF)”
as §2, with “(Toyama” for “(manufactured by Toyama”

[5] = Reprecipitation (dissolution) test for tacrolimus dissolved in ethanol, Experimental Example 6; format: physicochemical
Protocol: as §1, with “(300” for “(50”, “4, and” for “1,”, “Ltd.)” for “Ltd.), and copolyvidone (Kollidon VA-64, BASF)”, “300” for “500”
To each vessel, 1 mL of a solution of tacrolimus (100 mg/mL) in ethanol was added. Samples were taken at regular intervals, and centrifuged at 3000 rpm for 15 minutes. Tacrolimus dissolved in each supernatant was measured by a high performance liquid chromatography.

[6] = cited from earlier work
[7] = fluid containing hydroxypropylmethylcellulose 2910, after 2 hours

percentage dissolved ([1]; compound A in acetonitrile added to JP second fluid containing copolymer E of Example 1 (50 mg/500 mL), after 24 hours)	percentage dissolved ([1]; compound A in acetonitrile added to JP second fluid containing copolyvidone (50 mg/500 mL), after 2 hours)	percentage dissolved ([1]; compound A in acetonitrile added to JP second fluid containing hydroxypropylmethylcellulose 2910 (50 mg/500 mL), after 2 hours)	percentage dissolved ([2]; fluid containing copolymer E of Example 1, after 24 hours)	percentage dissolved [2, 7]	maintenance of solubility [4]	percentage dissolved ([5]; fluid containing copolymer E of Example 4, after 24 hours) [%]	percentage dissolved [5, 7]	Compound	reprecipitation ([1]; compound A in acetonitrile added to JP second fluid, absence of additives)	reprecipitation ([2]; absence of additives)	maintenance of solubility [3]	reprecipitation ([5]; absence of additives)	water solubility [6] [µg/mL]
approximately 75%	approximately 30%	approximately 30%	approximately 75%	approximately 30%	maintained for a long time	–	–	Cc1cccc(C)c1N(CC(=O)Nc1ccc(-c2ncon2)cc1)C(=O)C1CCS(=O)(=O)CC1 [compound A, N-(2,6-Dimethylphenyl)-N-(2-{[4-(1,2,4-oxadiazol-3-yl)phenyl]amino}-2-oxoethyl)tetrahydro-2H-thiopyran-4-carboxamide 1,1-dioxide]	reprecipitated immediately after the beginning of the test	reprecipitated immediately after the beginning of the test	a high solubility was maintained for a long time	–	–
–	–	–	–	–	–	≥ 90	approximately 20%	C=CC[C@@H]1/C=C(\C)C[C@H](C)C[C@H](OC)[C@H]2O[C@@](O)(C(=O)C(=O)N3CCCC[C@H]3C(=O)O[C@H](/C(C)=C/[C@@H]3CC[C@@H](O)[C@H](OC)C3)[C@H](C)[C@@H](O)CC1=O)[C@H](C)C[C@@H]2OC [tacrolimus]	–	–	–	reprecipitated immediately after the beginning of the test	≤ 1
